Results published in US9957236B2, “Selective inhibitors interfering with fibroblast growth factor receptor and FRS2 interaction for the prevention and treatment of cancer and other diseases” (LIMITED LIABILITY COMPANY “RUSSIAN PHARMACEUTICAL …, priority 2014, dated 2018).

Key:
[1] = system: triple negative breast cancer HS578T; test: Tumor growth of HS578T xenograft in nude mice; type: in vivo; conditions: for Slowdown of tumor growth: 30 mg/kg daily; for average size of tumor: 30 mg/kg daily through a stomach tube
Protocol: Females of immunodeficient mice (nude) at the age of 8 weeks were administered 2×10^6 tumor cells of human cell lines with various expression of FGFR2: • cell line of triple-negative breast cancer SUM52PE strongly expressing FGFR2 (purchased from Asterand, Inc. (Detroit, Mich.) • cell line of triple negative breast cancer HS578T weakly expressing FGFR2 (purchased from ATCC (CRL-125) • cell line of non-small cell lung cancer NCI-H226 not expressing FGFR2 (purchased from ATCC (CRL-5826)
After the tumor growth got established (1 mm^3), the mice were divided into control and treatment groups in accordance with the tumor type.
Control group 2 (N=10): HS578T, administration of water through a stomach tube, daily.
Treatment group 2 (N=10): HS578T, administration of inhibitor RPT835 through a stomach tube in a dose of 30 mg/kg, daily.
Size of tumor and weight of animals were measured every 3 day. The mice underwent euthanasia when the tumor reached the size of 2,000 mm^3 or on the 60 day of the experiment.

[2] = target: T1, FRS2α (Homo sapiens, UniProt Q8WU20); test: FRS2α phosphorylation in SUM-52 cells (Western blotting); type: cell-based; parameters: endogenous in cells; host or cells: hFOB; conditions: SUM-52 (FGFR2 IIIb), RPT835 1 micron, FGF-1 100 ng/ml
T1 sequence (Q8WU20 1-508): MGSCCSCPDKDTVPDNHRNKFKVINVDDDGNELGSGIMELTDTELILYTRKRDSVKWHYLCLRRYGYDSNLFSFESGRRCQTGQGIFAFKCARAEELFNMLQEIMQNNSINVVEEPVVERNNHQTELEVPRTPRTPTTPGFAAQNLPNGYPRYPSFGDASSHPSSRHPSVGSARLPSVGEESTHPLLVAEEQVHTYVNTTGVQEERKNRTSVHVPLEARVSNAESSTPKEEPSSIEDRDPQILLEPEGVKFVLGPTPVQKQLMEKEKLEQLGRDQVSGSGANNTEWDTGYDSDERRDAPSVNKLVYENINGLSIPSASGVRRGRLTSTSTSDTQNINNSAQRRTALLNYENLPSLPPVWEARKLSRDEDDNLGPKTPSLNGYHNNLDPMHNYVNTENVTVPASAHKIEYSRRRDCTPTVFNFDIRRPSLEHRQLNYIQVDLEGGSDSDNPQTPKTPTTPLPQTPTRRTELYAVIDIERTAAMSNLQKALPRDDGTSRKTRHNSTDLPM
Protocol: (§1) The research assessed the influence of inhibitor RPT835 determined by formula II of this invention, intervention with interaction of FGFR2 represented by two most frequent isoforms IIIb and IIIc with FRS2. For this, human cell line of embryonal osteoblasts (hFOB) expressing only FGFR2 […], and human cell line of breast cancer SUM-52 expressing FGFR2 IIIb (all main versions of isoform—C1, C2, C3) were chosen.
(§2) Cells were divided into the groups: • 1a) hFOB • 1b) hFOB, stimulating FGF-1 (100 ng/ml) • 1c) hFOB, cultivation with RPT835 (1 micron) and stimulation of FGF-1 (100 ng/ml) • 2a) SUM-52 • 2b) SUM-52, stimulation of FGF-1 (100 ng/ml) • 2c) SUM-52, cultivation with RPT835 (1 micron) and stimulation of FGF-1 (100 ng/ml)

[3] = system: modified line of non-small cells lung cancer A549; test: Crystal Violet proliferation assay, modified A549; type: cell-based; conditions: Homo sapiens; modified A549 with pronounced expression of FGFR2
Description: This research used additional cell lines: SKOV3 (ovarian cancer, ATCC # HTB-77), HS578T (breast cancer, ATCC # HTB-126), T47D (breast cancer, ATCC #HTB-1336), modified line of non-small cells lung cancer A549, line of metastatic melanoma of skin Mel Kor (RF Patent No. 2287578), and additional study of antiangiogenic activity—cell line SVEC-4-10 (endothelial cells, ATCC #CRL-2181).
The cells were cultivated in environment RPMI-1640 (PANECO) (SKOV3, HS578T, T47D, Mel-Kor) or DMEM (PANECO) (SVEC-4-10) containing 10% of embryonal serum cattle (FCS, HyClone), 2 mM glutamine (PANECO), antibiotics (100 IU/mL penicillin and […] streptomycin (all PANECO)) at 37° C. and 5% CO2. Cells at 70-80% monolayer were used for the experiments.
The cells were planted in low density (30 t of cells/ml) in triplets on a 96-cavity plate in an environment containing 0.1% of FCS serum. […] Growth of cells was determined by the modified “Crystal Violet mitogenic method” for 7 days after the experiment start. […] The dye was dissolved in ethanol and measured on a spectrophotometer at 540-560 nm. The curve of cell proliferative activity inhibition was built by the dependence of the percent of the cell quantity (Y axis) on concentration of inhibitor RPT835 in the cavity of the plate (X axis). […]

[4] = system: hFOB cells; test: Proliferation of hFOB cells expressing FGFR2 IIIc; type: cell-based, human; conditions: RPT835 1 micron, FGF-1 100 ng/ml
Protocol: as §1, §2

[5] = system: anti-FGF-2 antibody; test: Enzyme-linked immune assay, FGF-2 binding to immobilized anti-FGF-2 antibody; conditions: concentration of 1 to 1,000 nM
Protocol: The next task was to assess influence of inhibitor RPT835 on binding of FGF-2 and FGFR2-Fc. […] In order to exclude unspecific effect of RPT835 on binding, one more enzyme-linked immune assay was carried out, in which the cavities were covered with immobilized anti-FGF-2 antibody. FGF-2±RPT835 in different concentrations is added to the cavities.

## Cc1cc([N+](=O)[O-])c(NS(=O)(=O)c2cccc(C(=O)O)c2)cc1-c1cccnc1 [RPT835, 3-(N-(4-methyl-2-nitro-5-(pyridin-3-yl)phenyl)sulfamoyl)benzoic acid]
[1]; 31st day
  Slowdown of tumor growth: 33.2%
  average size of tumor: 703±89.1 mm3
[1]; 40th day
  Slowdown of tumor growth: 30.6%
[1]; 40th day, P=0.01
  average size of tumor: 1,104±162.2 mm3
[2]
  FRS2α phosphorylation level: completely suppressed the phosphorylation
[3]
  IC50: 10 nM
[4]
  proliferation of cells: reliably suppressed proliferation
[5]
  binding of FGF-2 with anti-FGF-2 antibody: did not influence on binding of FGF-2 with anti-FGF-2 antibody
